Results from US10703729B2, “Pyrazine derivative, and preparation method and medical use thereof” (GUANGZHOU MAGPIE PHARMACEUTICALS CO., LTD., priority 2015, dated 2020).

Assays:
[1] = Wang Tingfang, Journal of Pharmaceutical Practice 2011; cited from earlier work
H9c2 cells [2] = assay: Protective effect on A/R-induced H9c2 cell damage (MTT); type: cell-based; settings: hypoxia 12 hours, reoxygenation 4 hours, 490 nm, FIG. 17
Protocol: H9c2 cells were seeded in a 96-well plate and incubated at 37° C. in a 5% CO2 incubator for 24 hours, and then hypoxia was indicated. IND-023 of the drug group was diluted with KRB buffer as an anoxic solution into desired concentrations. The model group, after added only KRB solution with 50 μL in each well, was placed into the hypoxic box to be incubated for 12 hours, whereas, the blank group, after the initial medium was replaced with serum-free high glucose DMEM, was placed into a normal incubator. After the end of hypoxia, the medium of the model group was changed to serum-free high glucose DMEM. The drug group was diluted with high-glucose DMEM to corresponding concentrations with 100 μL each well, and was placed in a normal incubator and cultured for 4 hours. After the end of reoxygenation, the existing medium was removed and MTT was added. After 4 hours, the OD value was measured at 490 nm to calculate cell viability.

[3] = tested on: SD rat myocardial infarction model; assay: SD rat myocardial infarction model; type: in vivo; settings: 20 mg/kg via tail vein after modeling, read at 24 hours; FIG. 19
Protocol: A male SD rat was anesthetized with 2.5% isoflurane and fixed. Tracheotomy was performed, and the rat was connected to a ventilator and was cut at the position 0.5 cm on the left side of the sternal along the 2nd intercostal space and the 4th intercostal space 4. The subcutaneous tissue and muscle were bluntly dissected, and the chest was opened at the 4th intercostal space with forceps to expose the chest. The pericardium was carefully opened. The anterior descending branch of the left coronary artery was ligated with non-invasive suture needle No. 8 at the position of 2 to 3 mm from the lower edge of the left atrial appendage. The elevation of the ST segment of lead II ECG after the ligation was taken as an indication of a successful model. Throughout the experiment process, the rat was placed and kept warm on a 37° C. thermostatic table, and after waking up, the rat was placed into the original cage to continue feeding. After successful modeling, the rat was injected via tail vein for 15 min to give 20 mg/kg of IND-023 with a solution of 5% ethanol+5% polyethylene glycol+90% normal saline. […]

H9c2 cells [4] = assay: Protective effect on t-BHP-induced H9c2 cell injury (MTT); type: cell-based; settings: pre-protected 1 hour, t-BHP 150 μM 12 hours, 490 nm, FIG. 18
Protocol: H9c2 cells were seeded in a 96-well plate in a density of 1×10^4 cells/well, and cultured in a DMEM complete medium for 24 hours. IND-023 was pre-protected for 1 hour, and then diluted t-BHP 150 μM with serum-free high glucose DMEM and induced for 12 hours. MTT (5 mg/mL) was added and cultured for 4 hours. Then, the medium was aspirated, and 100 μL, of DMSO was added to each well. The cells were homogenized by shaking in a shaking table and the absorbance was measured at a wavelength of 490 nm with a BioTek microplate reader to calculate the cell viability.

H9c2 cells [5] = assay: Protective effect on IAA-induced H9c2 cell damage (MTT); type: cell-based; settings: pre-treatment 1 hour, IAA 50 μM 4 hours, 490 nm, FIG. 16
Protocol: H9c2 cells were seeded in a 96-well plate and incubated for 24 hours at 37° C. in a 5% CO2 incubator. Then, 100 μL it of IND-023 in different concentrations was added and subjected to prepreparation for 1 hour. After induction with IAA (50 μM) for 4 hours, MTT was added, and the absorbance was measured at 490 nm with a microplate reader.

| SMILES | bioavailability [1] | protective effect on A/R-induced H9c2 cell injury (H9c2 cells [2]) | protective effect on SD rat myocardial infarction model [3] | protective effect on t-BHP-induced H9c2 cell injury (H9c2 cells [4]) | protective effect on IAA-induced H9c2 cell injury (H9c2 cells [5]) |
| --- | --- | --- | --- | --- | --- |
| O=C(O)[C@H](O)Cc1ccc(O)c(O)c1 [Danshensu, Tanshinol] | 9.53-14.18% | – | – | – | – |
| Cc1nc(COC(=O)C(O)Cc2ccc(O)c(O)c2)c(C)nc1COC(=O)C(O)Cc1ccc(O)c(O)c1 (centres unmarked) [IND-023] | – | significant protective effect | protective effect | significant protective effect | significant protective effect |
